From ChEMBL document CHEMBL4402589, “Discovery of a Potent and Selective NF-κB-Inducing Kinase (NIK) Inhibitor That Has Anti-inflammatory Effects in Vitro and in Vivo” (J Med Chem, 2020)
One block for each compound: values may come before it. Active and inactive are the calls of the source. The calls are words filed in the database; no cut-off is given here.

Legend:
[1] = molecular target: T1, Mitogen-activated protein kinase kinase kinase 14 (Homo sapiens, UniProt Q99558); experiment: Inhibition of recombinant human N-terminal GST-tagged NIK (318 to 947 residues) expressed in baculovirus infected Sf9 cells using ultrapure ATP as substrate measured after 1 hr by ADP-glo assay
T1 sequence (Q99558 whole entry, the tested form may be a part): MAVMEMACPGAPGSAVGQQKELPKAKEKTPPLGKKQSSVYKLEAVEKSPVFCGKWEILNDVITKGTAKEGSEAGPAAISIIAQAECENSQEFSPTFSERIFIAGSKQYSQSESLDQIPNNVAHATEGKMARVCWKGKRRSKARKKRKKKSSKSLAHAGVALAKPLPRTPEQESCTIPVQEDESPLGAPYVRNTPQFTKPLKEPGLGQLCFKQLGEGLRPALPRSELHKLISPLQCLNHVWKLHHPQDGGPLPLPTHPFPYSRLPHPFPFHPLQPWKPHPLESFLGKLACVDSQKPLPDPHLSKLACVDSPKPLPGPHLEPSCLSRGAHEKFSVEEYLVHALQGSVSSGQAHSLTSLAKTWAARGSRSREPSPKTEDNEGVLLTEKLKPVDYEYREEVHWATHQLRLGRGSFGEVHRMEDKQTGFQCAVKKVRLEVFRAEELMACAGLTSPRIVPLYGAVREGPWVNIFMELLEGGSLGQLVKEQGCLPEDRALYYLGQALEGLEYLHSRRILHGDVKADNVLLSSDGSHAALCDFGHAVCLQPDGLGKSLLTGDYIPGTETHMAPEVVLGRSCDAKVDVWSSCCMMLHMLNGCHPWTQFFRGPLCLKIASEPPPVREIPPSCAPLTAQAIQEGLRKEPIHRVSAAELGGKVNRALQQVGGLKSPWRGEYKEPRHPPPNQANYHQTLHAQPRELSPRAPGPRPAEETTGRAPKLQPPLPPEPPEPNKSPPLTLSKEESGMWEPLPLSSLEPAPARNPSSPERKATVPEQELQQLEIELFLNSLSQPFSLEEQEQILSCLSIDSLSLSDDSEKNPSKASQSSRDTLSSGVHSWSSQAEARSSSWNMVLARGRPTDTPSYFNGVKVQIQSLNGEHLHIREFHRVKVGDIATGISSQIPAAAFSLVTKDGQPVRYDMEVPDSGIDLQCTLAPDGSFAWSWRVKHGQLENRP

[2] = Half life in ICR mouse at 15 mg/kg, po by LC-MS/MS analysis; format: ADME, organism-based; settings: in vivo
[3] = molecular target: T1, Mitogen-activated protein kinase kinase kinase 14; experiment: Binding affinity to wild-type human partial length NIK (L318 to P947 residues) expressed in mammalian expression system by Kinomescan method
[4] = AUC (0 to t) in ICR mouse at 5 mg/kg, iv by LC-MS/MS analysis; format: ADME, organism-based; settings: in vivo
[5] = molecular target: Mitogen-activated protein kinase kinase kinase 14 (Mus musculus) (UniProt Q9WUL6); experiment: Inhibition of NIK in NIK/p100 adenoviruses infected C57BL/6 mouse primary hepatocytes assessed as suppression of NIK-mediated proteolysis of p100 to p52 by measuring reduction in p52 level measured after 16 hrs by Western blot analysis
Mitogen-activated protein kinase kinase kinase 14 (Mus musculus), sequence (Q9WUL6 whole entry): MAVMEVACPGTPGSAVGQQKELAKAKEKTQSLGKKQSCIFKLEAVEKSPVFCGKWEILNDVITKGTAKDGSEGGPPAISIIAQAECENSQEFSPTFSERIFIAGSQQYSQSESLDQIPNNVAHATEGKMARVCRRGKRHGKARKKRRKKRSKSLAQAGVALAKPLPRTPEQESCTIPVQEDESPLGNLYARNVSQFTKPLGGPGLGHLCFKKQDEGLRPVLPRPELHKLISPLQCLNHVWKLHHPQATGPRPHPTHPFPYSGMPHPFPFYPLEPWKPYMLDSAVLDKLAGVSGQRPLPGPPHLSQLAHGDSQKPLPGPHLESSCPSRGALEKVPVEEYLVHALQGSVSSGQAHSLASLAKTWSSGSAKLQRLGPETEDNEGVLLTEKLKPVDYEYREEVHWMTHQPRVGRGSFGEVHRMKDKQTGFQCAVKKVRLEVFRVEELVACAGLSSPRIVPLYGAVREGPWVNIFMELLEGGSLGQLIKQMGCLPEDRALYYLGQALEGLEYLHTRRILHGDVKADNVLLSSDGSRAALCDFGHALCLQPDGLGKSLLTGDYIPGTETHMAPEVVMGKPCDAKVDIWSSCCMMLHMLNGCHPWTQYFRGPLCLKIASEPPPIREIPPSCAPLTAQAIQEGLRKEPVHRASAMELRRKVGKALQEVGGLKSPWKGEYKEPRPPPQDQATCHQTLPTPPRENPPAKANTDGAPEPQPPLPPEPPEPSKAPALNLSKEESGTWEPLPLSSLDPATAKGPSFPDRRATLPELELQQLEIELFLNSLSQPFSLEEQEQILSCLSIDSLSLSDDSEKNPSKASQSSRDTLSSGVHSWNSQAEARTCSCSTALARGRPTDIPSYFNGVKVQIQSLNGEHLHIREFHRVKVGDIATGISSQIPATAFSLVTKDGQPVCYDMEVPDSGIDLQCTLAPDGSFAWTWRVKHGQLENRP

Mus musculus [6] = experiment: (§1) Antiinflammatory activity in CCl4-induced C57BL/6 mouse model of liver injury assessed as reduction in TNFalpha mRNA expression in liver at 40 mg/kg, po administered 30 mins prior to CCl4 addition followed by compound redosing at 3 hrs interval for 9 hrs and measured 12 hrs […] by SYBR staining based RT-qPCR analysis; format: functional, organism-based
[7] = Cmax in ICR mouse at 15 mg/kg, po by LC-MS/MS analysis; format: ADME, organism-based; design: dose 15 mg/kg, route oral; settings: in vivo
[8] = Tmax in ICR mouse at 15 mg/kg, po by LC-MS/MS analysis; format: ADME, organism-based; settings: in vivo
[9] = Apparent volume of distribution in ICR mouse at 5 mg/kg, iv by LC-MS/MS analysis; format: ADME, organism-based; settings: in vivo, read-out: Vz
[10] = Stability of the compound in pH 1 aqueous solution; format: physicochemical; settings: buffer
[11] = Oral bioavailability in ICR mouse at 15 mg/kg by LC-MS/MS analysis; format: ADME, organism-based; settings: in vivo
[12] = molecular target: Mitogen-activated protein kinase kinase kinase 14 (Mus musculus) (UniProt Q9WUL6); experiment: Inhibition of NIK in NIK adenovirus infected C57BL/6 mouse primary hepatocytes assessed as reduction in CCL2 mRNA expression measured after 16 hrs by SYBR staining based RT-qPCR analysis
[13] = Half life in ICR mouse at 5 mg/kg, iv by LC-MS/MS analysis; format: ADME, organism-based; settings: in vivo
Mus musculus [14] = experiment: as §1, with “CCL2” for “TNFalpha”; format: functional, organism-based
[15] = Clearance in ICR mouse at 5 mg/kg, iv by LC-MS/MS analysis; format: ADME, organism-based; settings: in vivo
[16] = molecular target: Mitogen-activated protein kinase kinase kinase 14 (Mus musculus) (UniProt Q9WUL6); experiment: Inhibition of NIK in NIK adenovirus infected C57BL/6 mouse primary hepatocytes assessed as reduction in NOS2 mRNA expression measured after 16 hrs by SYBR staining based RT-qPCR analysis
Mus musculus [17] = experiment: as §1, with “CCL5” for “TNFalpha”; format: functional, organism-based
Mus musculus [18] = experiment: as §1, with “immune cell infiltration” for “TNFalpha mRNA expression”, “F4/80/DAPI” for “SYBR”, “immunofluorescence assay” for “RT-qPCR analysis”; format: functional, organism-based
[19] = molecular target: Mitogen-activated protein kinase kinase kinase 14 (Mus musculus) (UniProt Q9WUL6); experiment: Inhibition of NIK in NIK adenovirus infected C57BL/6 mouse primary hepatocytes assessed as reduction in CCL5 mRNA expression measured after 16 hrs by SYBR staining based RT-qPCR analysis
Mus musculus [20] = experiment: as §1, with “CXCL5” for “TNFalpha”; format: functional, organism-based
[21] = Cmax in ICR mouse at 5 mg/kg, iv by LC-MS/MS analysis; format: ADME, organism-based; design: dose 5 mg/kg, route intravenous; settings: in vivo
Mus musculus [22] = experiment: as §1, with “NOS2” for “TNFalpha”; format: functional, organism-based
[23] = Tmax in ICR mouse at 5 mg/kg, iv by LC-MS/MS analysis; format: ADME, organism-based; settings: in vivo
[24] = AUC (0 to t) in ICR mouse at 15 mg/kg, po by LC-MS/MS analysis; format: ADME, organism-based; settings: in vivo
Hepatocyte = experiment: Down regulation of NIK expression in NIK/p100 adenoviruses infected C57BL/6 mouse primary hepatocytes at 1 to 10 uM measured after 16 hrs by Western blot analysis; format: functional, cell-based
[25] = molecular target: Mitogen-activated protein kinase kinase kinase 14 (Mus musculus) (UniProt Q9WUL6); experiment: Inhibition of NIK in NIK adenovirus infected C57BL/6 mouse primary hepatocytes assessed as reduction in TNFalpha mRNA expression measured after 16 hrs by SYBR staining based RT-qPCR analysis
Mus musculus [26] = experiment: Antiinflammatory activity in CCl4-induced C57BL/6 mouse model of liver injury assessed as reduction in serum ALT level at 40 mg/kg, po administered 30 mins prior to CCl4 addition followed by compound redosing at 3 hrs interval for 9 hrs and measured 12 hrs […]; format: functional, organism-based
[27] = molecular target: Mitogen-activated protein kinase kinase kinase 14 (Mus musculus) (UniProt Q9WUL6); experiment: Inhibition of NIK in NIK adenovirus infected C57BL/6 mouse primary hepatocytes assessed as reduction in CXCL5 mRNA expression measured after 16 hrs by SYBR staining based RT-qPCR analysis
[28] = Oral bioavailability in ICR mouse; format: ADME, organism-based; settings: in vivo

IC50 [1]: 0.29 µM
Compound: Cc1cc(C(C)(O)C#Cc2cccc(-c3c[nH]c4cnc(N)nc34)c2)no1 (stereo not drawn)

IC50 [1]: 2.06 µM
Compound: CC(O)(C#Cc1cc(C#N)cc(-n2ccc3cnc(N)nc32)c1)c1nccs1 (stereo not drawn)

IC50 [1]: > 10 µM
Compound: CC(O)(C#Cc1cccc(-c2c[nH]c3cnc(N)nc23)c1)C(=O)N1CCCC1 (stereo not drawn)

IC50 [1]: 2.29 µM
Compound: CCC(O)(C#Cc1cc(-n2ccc3cnc(N)nc32)ccn1)c1nccs1 (stereo not drawn)

IC50 [1]: 1.57 µM
Compound: Nc1ncc2ccn(-c3ccnc(C#CC4(O)CCCCC4)c3)c2n1

IC50 [1]: 0.219 µM
Compound: CC(O)(C#Cc1cc(-n2ccc3cnc(N)nc32)ccc1C#N)c1nccs1 (stereo not drawn)

IC50 [1]: 0.468 µM
Compound: CC(O)(C#Cc1cccc(-c2c[nH]c3cnc(N)nc23)c1)c1cnccn1 (stereo not drawn)

IC50 [1]: 0.215 µM
Compound: CC(O)(C#Cc1ccc(F)c(-n2ccc3cnc(N)nc32)c1)c1nccs1 (stereo not drawn)

IC50 [1]: 0.319 µM
Compound: CC(O)(C#Cc1cc(F)cc(-c2c[nH]c3cnc(N)nc23)c1)c1nccs1 (stereo not drawn)

half-life [2]: 12 h | Kd [3]: 0.0049 µM | AUC(0-t) [4]: 891 ng·h/mL | inhibition [5]: Dose-dependent effect | Cmax [7]: 510 ng/mL | Tmax [8]: 0.3 h | Vd [9]: 26 L/kg | Stability [10]: Stable | bioavailability [11]: 13% | inhibition [12]: Dose-dependent effect | half-life [13]: 3.28 h | clearance [15]: 92.4 mL/min/kg | inhibition [16]: Dose-dependent effect | inhibition [19]: Dose-dependent effect | Cmax [21]: 3040 ng/mL | Tmax [23]: 4.8 min | AUC(0-t) [24]: 348 ng·h/mL | inhibition [25]: Dose-dependent effect | IC50 [1]: 0.0091 µM | inhibition [27]: Dose-dependent effect
Compound: C[C@@](O)(C#Cc1ccc(F)c(-c2c[nH]c3cnc(N)nc23)c1)c1nccs1
Activity (Mus musculus [6]): Active | Activity (Mus musculus [14]): Active | Activity (Mus musculus [17]): Active | Activity (Mus musculus [18]): Active | Activity (Mus musculus [20]): Active | Activity (Mus musculus [22]): Active | Activity (Hepatocyte): inactive | Activity (Mus musculus [26]): Active

IC50 [1]: 2.48 µM
Compound: CN1CCC(O)(C#Cc2cc(-n3ccc4ccc(N)nc43)ccn2)C1=O (stereo not drawn)

IC50 [1]: 0.216 µM
Compound: COc1ccc(C#CC(C)(O)c2nccs2)cc1-n1ccc2cnc(N)nc21 (stereo not drawn)

bioavailability [28]: 7% | Stability [10]: Stable | IC50 [1]: 0.0059 µM
Compound: CN1CCC(O)(C#Cc2ccc(F)c(-c3c[nH]c4cnc(N)nc34)c2)C1=O (stereo not drawn)

IC50 [1]: 2.03 µM
Compound: CC(O)(C#Cc1cccc(-c2c[nH]c3cnc(N)nc23)c1)C1CCCCC1 (stereo not drawn)

IC50 [1]: 2.48 µM
Compound: COc1nc(N)nc2c1ccn2-c1cccc(C#CC(C)(O)c2nccs2)c1 (stereo not drawn)

IC50 [1]: 0.29 µM
Compound: COc1cc(C#CC(C)(O)c2nccs2)cc(-c2c[nH]c3cnc(N)nc23)c1 (stereo not drawn)

IC50 [1]: 0.303 µM
Compound: CC(O)(C#Cc1cccc(-n2ccc3cnc(N)nc32)c1)c1nccs1 (stereo not drawn)

IC50 [1]: > 10 µM
Compound: CNc1ccc(-n2ccc3cnc(N)nc32)cc1C#CC(C)(O)c1nccs1 (stereo not drawn)

IC50 [1]: 0.388 µM
Compound: Nc1ncc2ccn(-c3ccnc(C#CC4(O)CCC4)c3)c2n1

IC50 [1]: 6.38 µM
Compound: Nc1ncc2[nH]cc(-c3cccc(C#CC(O)c4nccs4)c3)c2n1 (stereo not drawn)

IC50 [1]: 0.641 µM
Compound: CC(O)(C#Cc1cc(-n2ccc3cnc(N)nc32)c(F)cc1F)c1nccs1 (stereo not drawn)

IC50 [1]: 0.0257 µM
Compound: CN1CCCC(O)(C#Cc2cc(-n3ccc4cnc(N)nc43)ccn2)C1=O (stereo not drawn)

bioavailability [28]: < 1% | IC50 [1]: 0.0261 µM
Compound: CN1CCC(O)(C#Cc2cc(-n3ccc4cnc(N)nc43)ccn2)C1=O (stereo not drawn)

IC50 [1]: 0.748 µM
Compound: Nc1ncc2ccn(-c3ccnc(C#CC4(O)CCCCCC4)c3)c2n1

IC50 [1]: > 10 µM
Compound: CN(C)C(=O)C(C)(O)C#Cc1cccc(-c2c[nH]c3cnc(N)nc23)c1 (stereo not drawn)

IC50 [1]: > 10 µM
Compound: CN(C)CCOc1ccc(-n2ccc3cnc(N)nc32)cc1C#CC(C)(O)c1nccs1 (stereo not drawn)

IC50 [1]: 25.8 µM
Compound: COCCOc1ccc(-n2ccc3cnc(N)nc32)cc1C#CC(C)(O)c1nccs1 (stereo not drawn)

IC50 [1]: 1.64 µM
Compound: CC(O)(C#Cc1cc(-n2ccc3cnc(N)nc32)ccn1)c1cnccn1 (stereo not drawn)
